In PMC10838382 (Cancer Drug Resistance, 2024):
Where two headings read alike, the source gives them in different places.

How the values were obtained:
MAXFTN MX1 = assay: 2D proliferation assay (CellTiter-Blue); details: read-out: Relative docetaxel IC50
15 tumor cell lines = assay: 2D proliferation assay (CellTiter-Blue), panel of 15 tumor cell lines; details: read-out: mean relative IC50
OVXF NCI-ADR-RES = assay: cells; details: Homo sapiens, read-out: Relative docetaxel IC50
MAXFTN MCF 10A = assay: cells; details: Homo sapiens, read-out: Relative docetaxel IC50
GXA 3011 = assay: cells; details: read-out: Relative docetaxel IC50
PRXF DU-145 = assay: 2D proliferation assay (CellTiter-Blue); type: cell-based, human; details: Homo sapiens
MAXFLB MCF7 = assay: cells; details: Homo sapiens, MCF7, read-out: Relative docetaxel IC50
PC-3 = assay: 2D proliferation assay (CellTiter-Blue); type: cell-based; details: Homo sapiens
22Rv1DOC8 [1] = assay: 3D clonogenic assay (soft agar); type: cell-based, human; details: for Relative resistance: 22Rv1DOC8 vs 22Rv1; for IC50: Homo sapiens
LXFA 737 = assay: 2D proliferation assay (CellTiter-Blue); details: read-out: Relative docetaxel IC50
DU-145DOC10 [2] = assay: 2D proliferation assay, docetaxel-resistant subline; type: cell-based, human; details: for IC50: Homo sapiens
PRXF 22Rv1 = assay: 2D proliferation assay (CellTiter-Blue); type: cell-based; details: Homo sapiens
MAXFTN CAL-51 = assay: cells; details: Homo sapiens, CAL-51, read-out: Relative docetaxel IC50
PC-3DOC3 = assay: 2D proliferation assay, docetaxel-exposed subline; type: cell-based, human
PC-3M = assay: 2D proliferation assay (CellTiter-Blue); details: Homo sapiens, read-out: Relative docetaxel IC50
22Rv1DOC8 [3] = assay: 2D proliferation assay, docetaxel-resistant subline; type: cell-based, human; details: for IC50: Homo sapiens
GXA NUGC-4 = assay: cells; details: Homo sapiens, NUGC-4, read-out: Relative docetaxel IC50
OVXF 899 = assay: cells; details: read-out: Relative docetaxel IC50
LXFA EKVX = assay: cells; details: Homo sapiens, read-out: Relative docetaxel IC50
22Rv1 = assay: 3D clonogenic assay (soft agar); details: Homo sapiens, 22Rv1, read-out: Docetaxel IC50, 22Rv1, 3D clonogenic assay
DU-145 = assay: 3D clonogenic assay (soft agar); details: Homo sapiens, DU-145, read-out: Docetaxel IC50, DU-145, 3D clonogenic assay
OVXF EFO-27 = assay: 2D proliferation assay (CellTiter-Blue); details: Homo sapiens, EFO-27, read-out: Relative docetaxel IC50
DU-145DOC10 [4] = assay: 3D clonogenic assay (soft agar); type: cell-based, human; details: for Relative resistance: DU-145DOC10 vs DU-145
Caco-2 cell monolayers = assay: Bidirectional permeability assay across Caco-2 monolayers; type: in vitro ADME, human; details: for ER: inhibitor where named: valspodar 10 μM or ritonavir 50 μM
Protocol: (§1) Samples were analyzed using LC-MS/MS.
(§2) The medium was changed 24 h before the experiment. […] The bioanalysis of docetaxel was performed with the .
(§3) The following equation was used to calculate apparent permeability coefficient (Papp):
(§4) dQ: amount of transporter test drug in pmol; dT: incubation time in seconds; A: surface of porous membrane in cm^2 (standard: 0.7); C0: initial concentration of test agent in the donor chamber in pmol/cm^3.

[5] = as above; type: in vitro ADME, human; details: human
Protocol: as §1, §2, §3, §4

[6] = docetaxel + elacridar 1 µM, 3D clonogenic assay
[7] = docetaxel + ritonavir 10 µM, 3D clonogenic assay
[8] = docetaxel without elacridar, 3D clonogenic assay
[9] = docetaxel without ritonavir, 3D clonogenic assay
[10] = without elacridar (elacridar experiment)
[11] = without ritonavir (ritonavir experiment)

IC50 (15 tumor cell lines): 2.6 nM
IC50 (OVXF NCI-ADR-RES): > 100 nM
IC50 (MAXFTN MCF 10A): 0.7 nM
IC50 (GXA 3011): 0.5 nM
IC50 (PRXF DU-145; DU-145, DU-145, 2D culture, Figure 1, read-out: IC 50): 0.81 nM
IC50 (PRXF DU-145; DU-145, PRXF DU-145, 2D proliferation assay, read-out: Relative docetaxel IC50): 0.9 nM
IC50 (MAXFLB MCF7): 1.1 nM
IC50 (PC-3; PC-3, read-out: Relative docetaxel IC50): 1.9 nM
fold decrease of relative IC50 of docetaxel by elacridar (22Rv1DOC8 [1]; 22Rv1DOC8, elacridar 1 µM as printed (lower of two concentrations), 3D clonogenic assay): 91 fold
fold decrease of relative IC50 of docetaxel by elacridar (22Rv1DOC8 [1]; 22Rv1DOC8, elacridar 10 µM as printed (higher of two concentrations), 3D clonogenic assay): 116 fold
fold decrease of docetaxel IC50 by ritonavir (22Rv1DOC8 [1]; 22Rv1DOC8, ritonavir 32 μM, 3D clonogenic assay): 84 fold
IC50 (22Rv1DOC8 [1]; 22Rv1DOC8, 3D clonogenic assay, + elacridar 1 µM, read-out: Docetaxel IC50): 1.3 nM
IC50 (22Rv1DOC8 [1]; 22Rv1DOC8, 3D clonogenic assay, + ritonavir 10 µM, read-out: Docetaxel IC50): 46.2 nM
IC50 (22Rv1DOC8 [1]; 22Rv1DOC8, 3D clonogenic assay, + ritonavir 32 µM, read-out: Docetaxel IC50): 3 nM
IC50 (22Rv1DOC8 [1]; 22Rv1DOC8, 3D clonogenic assay, without elacridar (elacridar experiment), read-out: Docetaxel IC50): 134 nM
IC50 (22Rv1DOC8 [1]; 22Rv1DOC8, 3D clonogenic assay, without ritonavir (32 μM ritonavir experiment, Figure 5), read-out: relative IC50 value of docetaxel): 219 nM
IC50 (22Rv1DOC8 [1]; 22Rv1DOC8, 3D clonogenic assay, without ritonavir (ritonavir experiment), read-out: Docetaxel IC50): 54.6 nM
IC50 (22Rv1DOC8 [1]; 22Rv1DOC8, docetaxel alone, Figure 5A, read-out: IC 50): 224 nM
IC50 (DU-145DOC10 [2]; DU-145DOC10 (passage 10 nM docetaxel), 2D proliferation assay, read-out: Docetaxel IC50): 17.8 nM
IC50 (DU-145DOC10 [2]; DU-145DOC10, 2D culture, Figure 1, read-out: IC 50): 17.8 nM
IC50 (PRXF 22Rv1; 22Rv1, 2D culture, Figure 1, read-out: IC 50): 0.98 nM
IC50 (PRXF 22Rv1; PRXF 22Rv1, 2D proliferation assay, read-out: Relative docetaxel IC50): 1.5 nM
IC50 (MAXFTN CAL-51): 1.7 nM
IC50 (PC-3DOC3; Homo sapiens, PC-3DOC3 (passage 2 nM docetaxel)): 4.4 nM
IC50 (PC-3M): 2.4 nM
IC50 (22Rv1DOC8 [3]; 22Rv1-DOC8 (passage 8 nM docetaxel), 2D proliferation assay, read-out: Docetaxel IC50): 134 nM
IC50 (22Rv1DOC8 [3]; 22Rv1DOC8, 2D culture, Figure 1, read-out: IC 50): 134 nM
IC50 (GXA NUGC-4): 5.5 nM
IC50 (OVXF 899): 20.2 nM
IC50 (LXFA EKVX): 1.9 nM
IC50 (22Rv1; + ritonavir 10 µM): 1.8 nM
IC50 (22Rv1; [10]): 1.3 nM
IC50 (22Rv1; [11]): 1.3 nM
IC50 (DU-145; + ritonavir 10 µM): 1.7 nM
IC50 (DU-145; [10]): 1.1 nM
IC50 (DU-145; [11]): 2.9 nM
IC50 (DU-145DOC10 [4]; DU-145DOC10, 3D clonogenic assay, without elacridar (elacridar experiment), read-out: Docetaxel IC50): 11.7 nM
fold decrease of relative IC50 of docetaxel by elacridar (DU-145DOC10 [4]; DU-145DOC10, elacridar 1 µM as printed (lower of two concentrations), 3D clonogenic assay): 6 fold
fold decrease of relative IC50 of docetaxel by elacridar (DU-145DOC10 [4]; DU-145DOC10, elacridar 10 µM as printed (higher of two concentrations), 3D clonogenic assay): 7.1 fold
fold lower docetaxel IC50 on addition of ritonavir (DU-145DOC10 [4]; DU-145DOC10, ritonavir 10 µM, 3D clonogenic assay): 3.4 fold
IC50 (DU-145DOC10 [4]; Homo sapiens, DU-145DOC10, 3D clonogenic assay, + elacridar 1 µM, read-out: Docetaxel IC50): 1.6 nM
IC50 (DU-145DOC10 [4]; Homo sapiens, DU-145DOC10, 3D clonogenic assay, + elacridar, first of two values both printed as 1 μM (Figure 6 legend), read-out: Docetaxel IC50): 1.9 nM
IC50 (DU-145DOC10 [4]; Homo sapiens, DU-145DOC10, 3D clonogenic assay, + ritonavir 10 µM, read-out: Docetaxel IC50): 2.8 nM
IC50 (DU-145DOC10 [4]; Homo sapiens, DU-145DOC10, 3D clonogenic assay, without elacridar (elacridar experiment), read-out: Docetaxel IC50): 11.4 nM
IC50 (DU-145DOC10 [4]; Homo sapiens, DU-145DOC10, 3D clonogenic assay, without ritonavir (ritonavir experiment), read-out: Docetaxel IC50): 9.5 nM
IC50 (DU-145DOC10 [4]; Homo sapiens, DU-145DOC10, docetaxel alone, Figure 4A, read-out: IC 50): 9.37 nM
IC50 (DU-145DOC10 [4]; Homo sapiens, DU-145DOC10, docetaxel alone, Figure 6A, read-out: IC 50): 11.4 nM
ER values (Caco-2 cell monolayers; both at 5 and 10 μM docetaxel, no inhibitor): > 2
ER (Caco-2 cell monolayers; docetaxel 5 μM, incubation 60 min): 69.46 ± 13.24
ER (Caco-2 cell monolayers; docetaxel 5 μM, incubation 120 min): 43.85 ± 3.80
ER (Caco-2 cell monolayers; docetaxel 10 μM, incubation 120 min): 32.66 ± 5.35
Papp A→B at 60 min, 5 μM ([5]; Caco-2): 0.29 ± 0.06 ×10⁻⁶ cm/s
Papp A→B at 60 min, 10 μM ([5]; Caco-2): 0.66 ± 0.02 ×10⁻⁶ cm/s
Papp A→B at 120 min, 5 μM ([5]; Caco-2): 0.81 ± 0.06 ×10⁻⁶ cm/s
Papp A→B at 120 min, 10 μM ([5]; Caco-2): 0.91 ± 0.15 ×10⁻⁶ cm/s
Papp B→A at 60 min, 5 μM ([5]; Caco-2): 20.3 ± 0.25 ×10⁻⁶ cm/s
Papp B→A at 60 min, 10 μM ([5]; Caco-2): 21 ± 0.78 ×10⁻⁶ cm/s
Papp B→A at 120 min, 5 μM ([5]; Caco-2): 35.4 ± 1.83 ×10⁻⁶ cm/s
Papp B→A at 120 min, 10 μM ([5]; Caco-2): 29.6 ± 0.8 ×10⁻⁶ cm/s
efflux ratio at 60 min, 5 μM ([5]; Caco-2, docetaxel 5 μM, incubation 60 min, inhibitor where named: valspodar 10 μM or ritonavir 50 μM, read-out: ER): 69.5
efflux ratio at 120 min, 5 μM ([5]; Caco-2, docetaxel 5 μM, incubation 120 min, inhibitor where named: valspodar 10 μM or ritonavir 50 μM, read-out: ER): 43.9
efflux ratio at 60 min, 10 μM ([5]; Caco-2, docetaxel 10 μM, incubation 60 min, inhibitor where named: valspodar 10 μM or ritonavir 50 μM, read-out: ER): 31.8 ± 1.54
efflux ratio at 120 min, 10 μM ([5]; Caco-2, docetaxel 10 μM, incubation 120 min, inhibitor where named: valspodar 10 μM or ritonavir 50 μM, read-out: ER): 32.7
SMILES: CC(=O)O[C@@]12CO[C@@H]1C[C@H](O)[C@@]1(C)C(=O)[C@H](O)C3=C(C)[C@@H](OC(=O)[C@H](O)[C@@H](NC(=O)OC(C)(C)C)c4ccccc4)C[C@@](O)([C@@H](OC(=O)c4ccccc4)[C@H]21)C3(C)C [Docetaxel]
IC50 (MAXFTN MX1): 1.9 nM
IC50 (PRXF DU-145; DU-145, DU-145 parental, 2D proliferation assay, read-out: Docetaxel IC50): 0.8 nM
IC50 (PC-3; PC-3 parental, read-out: Docetaxel IC50): 1.1 nM
Relative resistance (22Rv1DOC8 [1]; [6]): 1.0
Relative resistance (22Rv1DOC8 [1]; [7]): 35.5
Relative resistance (22Rv1DOC8 [1]; docetaxel + ritonavir 10 µM, 3D clonogenic assay, listed as docetaxel): 36
Relative resistance (22Rv1DOC8 [1]; docetaxel + ritonavir 32 µM, 3D clonogenic assay): 2.3
Relative resistance (22Rv1DOC8 [1]; [8]): 103.1
Relative resistance (22Rv1DOC8 [1]; [9]): 42.0
IC50 (LXFA 737): 2.2 nM
Relative resistance (DU-145DOC10 [2]; DU-145DOC10 vs DU-145, 2D proliferation assay): 22.3
IC50 (PRXF 22Rv1; 22Rv1 parental, 2D proliferation assay, read-out: Docetaxel IC50): 1 nM
Relative resistance (PC-3DOC3; PC-3DOC3 vs PC-3): 4.0
Relative resistance (22Rv1DOC8 [3]; 22Rv1-DOC8 vs 22Rv1, 2D proliferation assay): 133.6
IC50 (OVXF EFO-27): 0.7 nM
Relative resistance (DU-145DOC10 [4]; [6]): 1.5
Relative resistance (DU-145DOC10 [4]; [7]): 1.0
Relative resistance (DU-145DOC10 [4]; [8]): 10.6
Relative resistance (DU-145DOC10 [4]; [9]): 3.3
